Laboratory results published in publication PMC11855827, “High-Throughput Screening of Five Compound Libraries for Anthelmintic Activity and Toxicity Leads to the Discovery of Two Flavonoid Compounds” (International Journal of Molecular Sciences, 2025).
Where “and” joins values, the source holds several entries; their conditions need not be identical. Equal entries are not always repeated.

System: C. elegans
Settings: Table S2, C. elegans SS assay, 110 μM, averages of 4 data points

For `Cl.NC12CC3CC(CC(C3)C1)C2` [Amantadine (hydrochloride)], the “Percentage of motility inhibition 0 h” value was 42% and the “Percentage of motility inhibition 24 h” value was 2%.

For `C=C[C@H]1[C@H](O[C@@H]2O[C@H](CO)[C@@H](O)[C@H](O)[C@H]2OC(=O)c2c(O)cc(O)cc2-c2cccc(O)c2)OC=C2C(=O)OCC[C@]21O` [Amaroswerin], the “Percentage of motility inhibition 0 h” value was 0% and the “Percentage of motility inhibition 24 h” value was 0%.

`CC1(C)CCC[C@]2(C)[C@H]3CCO[C@]3(C)CC[C@@H]12` [Ambroxide] was tested, and the “Percentage of motility inhibition 0 h” value was 8% and the “Percentage of motility inhibition 24 h” value was 14%.

`NCC[C@H](O)C(=O)N[C@@H]1C[C@H](N)[C@@H](O[C@H]2O[C@H](CN)[C@@H](O)[C@H](O)[C@H]2O)[C@H](O)[C@H]1O[C@H]1O[C@H](CO)[C@@H](O)[C@H](N)[C@H]1O.O=S(=O)(O)O.O=S(=O)(O)O` [Amikacin (sulfate)] was tested, and the “Percentage of motility inhibition 0 h” value was 0% and the “Percentage of motility inhibition 24 h” value was 3%.

For `CC1(C)[C@@H](O[C@H]2O[C@H](C(=O)O)[C@@H](O)[C@H](O)[C@H]2O[C@@H]2O[C@H](C(=O)O)[C@@H](O)[C@H](O)[C@H]2O)CC[C@]2(C)[C@H]3C(=O)C=C4[C@@H]5C[C@@](C)(C(=O)O)CC[C@]5(C)CC[C@@]4(C)[C@]3(C)CC[C@@H]12` [Ammonium glycyrrhizinate], the “Percentage of motility inhibition 0 h” value was 20% and the “Percentage of motility inhibition 24 h” value was 11%.

In the case of `CCC(C)(C)c1ccc(CC(C)CN2C[C@@H](C)O[C@@H](C)C2)cc1.Cl` (stereo partly shown) [Amorolfine (hydrochloride)], the “Percentage of motility inhibition 0 h” value is reported as 20% and the “Percentage of motility inhibition 24 h” value is reported as 9%.

In the case of `CC1(C)S[C@@H]2[C@H](NC(=O)[C@H](N)c3ccc(O)cc3)C(=O)N2[C@H]1C(=O)[O-].[Na+]` [Amoxicillin (sodium)], the “Percentage of motility inhibition 0 h” value is reported as 29% and the “Percentage of motility inhibition 24 h” value is reported as 10%.

For `CC1(C)S[C@@H]2[C@H](NC(=O)[C@H](N)c3ccc(O)cc3)C(=O)N2[C@H]1C(=O)O.O.O.O` [Amoxicillin (trihydrate)], the “Percentage of motility inhibition 0 h” value was 27% and the “Percentage of motility inhibition 24 h” value was 0%.

With `CC1(C)S[C@@H]2[C@H](NC(=O)[C@H](N)c3ccccc3)C(=O)N2[C@H]1C(=O)[O-].[Na+]` [Ampicillin (sodium)] the “Percentage of motility inhibition 0 h” value was 24% and the “Percentage of motility inhibition 24 h” value was 1%.

In the case of `CCCc1ncc(C[n+]2ccccc2C)c(N)n1.Cl.[Cl-]` [Amprolium (hydrochloride)], the “Percentage of motility inhibition 0 h” value is reported as 12% and the “Percentage of motility inhibition 24 h” value is reported as 0%.

For `COc1ccc2c(c1OC)C(OC)N(C)c1c-2ccc2cc3c(cc12)OCO3` (stereo not shown) [Angoline], the “Percentage of motility inhibition 0 h” value was 0% and the “Percentage of motility inhibition 24 h” value was 0%.

`Br.CN1[C@H]2C[C@H](OC(=O)[C@H](CO)c3ccccc3)C[C@@H]1[C@@H](O)C2` [Anisodamine (hydrobromide)] was tested, and the “Percentage of motility inhibition 0 h” value was 0% and the “Percentage of motility inhibition 24 h” value was 1%.

With `CN1[C@H]2C[C@H](OC(=O)[C@H](CO)c3ccccc3)C[C@@H]1[C@@H](O)C2` [Anisodamine] the “Percentage of motility inhibition 0 h” value was 10% and the “Percentage of motility inhibition 24 h” value was 5%.

For `COc1ccc(C[C@H]2NC[C@H](O)[C@H]2OC(C)=O)cc1` [Anisomycin], the “Percentage of motility inhibition 0 h” value was 10% and the “Percentage of motility inhibition 24 h” value was 44%.

With `CC(C)(C)OC(=O)N1CCC[C@H]1c1nc(C(=O)O)cs1` [Antibiotic‐5d] the “Percentage of motility inhibition 0 h” value was 0% and the “Percentage of motility inhibition 24 h” value was 0%.

With `O=C1CC[C@H](NC(=O)Cc2ccccc2)C(=O)N1` [Antineoplaston A10] the “Percentage of motility inhibition 0 h” value was 0% and the “Percentage of motility inhibition 24 h” value was 0%.

`O=c1cc(-c2ccc(O)cc2)oc2cc(O[C@@H]3O[C@H](CO)[C@@H](O)[C@H](O)[C@H]3O)cc(O)c12` [Apigenin 7‐glucoside] was tested, and the “Percentage of motility inhibition 0 h” value was 10% and the “Percentage of motility inhibition 24 h” value was 40%.

For `CC1OC(OC2C(Oc3cc(O)c4c(=O)cc(-c5ccc(O)cc5)oc4c3)OC(COC3OC(CO)C(O)C(O)C3O)C(O)C2O)C(O)C(O)C1O` (stereo not shown) [Apigenin‐7‐O‐(2G‐rhamnosyl)gentiobioside], the “Percentage of motility inhibition 0 h” value was 10% and the “Percentage of motility inhibition 24 h” value was 0%.

In the case of `O=C(O)[C@H]1O[C@@H](Oc2cc(O)c3c(=O)cc(-c4ccc(O)cc4)oc3c2)[C@H](O)[C@@H](O)[C@@H]1O` [Apigenin‐7‐glucuronide], the “Percentage of motility inhibition 0 h” value is reported as 23% and the “Percentage of motility inhibition 24 h” value is reported as 3%.

With `C=C(C(=O)OC1C[C@@H]2[C@H]3O[C@H]3[C@H](C1)N2C)c1ccccc1` (stereo partly shown) [Aposcopolamine] the “Percentage of motility inhibition 0 h” value was 14% and the “Percentage of motility inhibition 24 h” value was 10%.

With `CN[C@@H]1[C@@H](O[C@H]2O[C@H](CO)[C@@H](N)[C@H](O)[C@H]2O)OC2C[C@@H](N)[C@@H](O[C@H]3[C@H](O)[C@@H](O)[C@H](N)C[C@@H]3N)OC2[C@@H]1O` (stereo partly shown) [Apramycin (sulfate)] the “Percentage of motility inhibition 0 h” value was 29% and the “Percentage of motility inhibition 24 h” value was 2%.

For `CC1(C)CC[C@]2(C(=O)O[C@@H]3O[C@H](CO)[C@@H](O)[C@H](O)[C@H]3O)CC[C@]3(C)C(=CC[C@@H]4[C@@]5(C)CC[C@H](O[C@@H]6O[C@H](C(=O)O)[C@@H](O[C@@H]7O[C@@H](CO)[C@H](O)[C@H]7O)[C@H](O)[C@H]6O)C(C)(C)[C@@H]5CC[C@]43C)[C@@H]2C1` [Araloside A], the “Percentage of motility inhibition 0 h” value was 6% and the “Percentage of motility inhibition 24 h” value was 0%.

`CCOC(=O)c1c(CSc2ccccc2)n(C)c2cc(Br)c(O)c(CN(C)C)c12.Cl` [Arbidol (hydrochloride)] was tested, and the “Percentage of motility inhibition 0 h” value was 33% and the “Percentage of motility inhibition 24 h” value was 3%.

`CC1(C)[C@@H](O[C@@H]2OC[C@H](O[C@@H]3O[C@H](CO)[C@@H](O)[C@H](O)[C@H]3O[C@@H]3OC[C@@H](O)[C@H](O)[C@H]3O)[C@H](O)[C@H]2O[C@@H]2O[C@H](CO)[C@@H](O)[C@H](O)[C@H]2O)CC[C@]2(C)[C@H]3CC[C@]45OC[C@@]6(CC[C@](C)(C=O)C[C@H]64)[C@H](O)C[C@@]5(C)[C@]3(C)CC[C@@H]12` [Ardisiacrispin A] was tested, and the “Percentage of motility inhibition 0 h” value was 22% and the “Percentage of motility inhibition 24 h” value was 0%.

In the case of `CN1CCC=C(C(=O)O)C1.Cl` [Arecaidine (hydrochloride)], the “Percentage of motility inhibition 0 h” value is reported as 7% and the “Percentage of motility inhibition 24 h” value is reported as 6%.

For `CN1CCC=C(C(=O)O)C1` [Arecaidine], the “Percentage of motility inhibition 0 h” value was 16% and the “Percentage of motility inhibition 24 h” value was 0%.

For `COc1cccc2c1cc([N+](=O)[O-])c1c(C(=O)O)cc3c(c12)OCO3` [Aristolochic acid A], the “Percentage of motility inhibition 24 h” value was 22% and 11%.

In the case of `CC1(C)CC[C@]2(C(=O)O[C@@H]3O[C@H](CO)[C@@H](O)[C@H](O)[C@H]3O)CC[C@]3(C)C(=CC[C@@H]4[C@@]5(C)C[C@@H](O)[C@H](O)C(C)(C)[C@@H]5CC[C@]43C)[C@@H]2[C@@H]1O` [Arjunetin], the “Percentage of motility inhibition 0 h” value is reported as 0% and the “Percentage of motility inhibition 24 h” value is reported as 18%.

In the case of `COc1cc2c(cc1OC)C(Cc1ccc(O)cc1)N(C)CC2` (stereo not shown) [Armepavine], the “Percentage of motility inhibition 0 h” value is reported as 0% and the “Percentage of motility inhibition 24 h” value is reported as 12%.

`CC(=O)c1cc2c(CO)cc(O)cc2oc1=O` [Armillarisin A] was tested, and the “Percentage of motility inhibition 0 h” value was 0% and the “Percentage of motility inhibition 24 h” value was 4%.

`C=C(C)C(=O)O[C@H]1[C@@H]2[C@H](C)C(=O)O[C@@H]2C[C@@H](C)[C@@H]2C=CC(=O)[C@]21C` [Arnicolide D] was tested, and the “Percentage of motility inhibition 0 h” value was 16% and the “Percentage of motility inhibition 24 h” value was 25%.

`C=C1CC[C@@]2(C)[C@H]([C@@H]1C)[C@H]1CC[C@@H]3[C@@]4(C)CC[C@H](O)C(C)(C)[C@@H]4CC[C@@]3(C)[C@]1(C)C[C@@H]2O` [Arnidiol] was tested, and the “Percentage of motility inhibition 0 h” value was 12% and the “Percentage of motility inhibition 24 h” value was 57%.

With `C=C(C(=O)O)[C@@H]1CC[C@@H](C)[C@@H]2CCC(C)=C[C@@H]21` [Artemisic acid] the “Percentage of motility inhibition 0 h” value was 1% and the “Percentage of motility inhibition 24 h” value was 14%.

With `C[C@@H]1CC[C@H]2[C@@H](C)C(=O)O[C@@H]3O[C@@]4(C)CC[C@@H]1[C@]32OO4` [Artemisinin] the “Percentage of motility inhibition 24 h” value was 9% and 0%.

With `COc1ccc(-c2oc3cc(OC)c(OC)c(O)c3c(=O)c2OC)cc1OC` [Artemitin] the “Percentage of motility inhibition 0 h” value was 0% and the “Percentage of motility inhibition 24 h” value was 20%.

`CCO[C@H]1O[C@@H]2O[C@@]3(C)CC[C@H]4[C@H](C)CC[C@@H]([C@H]1C)[C@@]24OO3` [Artemotil] was tested, and the “Percentage of motility inhibition 24 h” value was 0% and 2%.

For `CC1(C)CC[C@]2(C(=O)O[C@@H]3O[C@H](CO[C@@H]4O[C@H](CO)[C@@H](O)[C@H](O)[C@H]4O)[C@@H](O)[C@H](O)[C@H]3O)CC[C@]3(C)C(=CC[C@@H]4[C@@]5(C)CC[C@H](O[C@@H]6OC[C@H](O)[C@H](O)[C@H]6O)[C@@](C)(CO)[C@@H]5CC[C@]43C)[C@@H]2C1` [Asperosaponin VI], the “Percentage of motility inhibition 0 h” value was 0% and the “Percentage of motility inhibition 24 h” value was 2%.

For `CC(C)(O)[C@@H]1CC[C@](C)([C@H]2[C@@H](O)C[C@@]3(C)[C@@H]4C[C@H](O)[C@H]5C(C)(C)[C@@H](O[C@@H]6OC[C@@H](O)[C@H](O)[C@H]6O[C@@H]6O[C@H](CO)[C@@H](O)[C@H](O)[C@H]6O)CC[C@@]56C[C@@]46CC[C@]23C)O1` [Astragaloside III], the “Percentage of motility inhibition 0 h” value was 0% and the “Percentage of motility inhibition 24 h” value was 35%.

With `CC(=O)O[C@H]1[C@H](O[C@H]2CC[C@]34C[C@]35CC[C@]3(C)[C@@H]([C@@]6(C)CC[C@@H](C(C)(C)O)O6)[C@@H](O)C[C@@]3(C)[C@@H]5C[C@H](O[C@@H]3O[C@H](CO)[C@@H](O)[C@H](O)[C@H]3O)[C@H]4C2(C)C)OC[C@@H](O)[C@@H]1O` [Astragaloside II] the “Percentage of motility inhibition 0 h” value was 5% and the “Percentage of motility inhibition 24 h” value was 45%.

`CC(C)(O)[C@@H]1CC[C@](C)([C@H]2[C@@H](O)C[C@@]3(C)[C@@H]4C[C@H](O[C@@H]5O[C@H](CO)[C@@H](O)[C@H](O)[C@H]5O)[C@H]5C(C)(C)[C@@H](O[C@@H]6OC[C@@H](O)[C@H](O)[C@H]6O)CC[C@@]56C[C@@]46CC[C@]23C)O1` [Astragaloside IV] was tested, and the “Percentage of motility inhibition 0 h” value was 10% and the “Percentage of motility inhibition 24 h” value was 0%.

`CC(C)(O)[C@@H]1CC[C@](C)([C@H]2[C@@H](O)C[C@@]3(C)[C@@H]4C[C@H](O[C@@H]5O[C@H](CO)[C@@H](O)[C@H](O)[C@H]5O)[C@H]5C(C)(C)[C@@H](O[C@@H]6OC[C@@H](O)[C@H](O)[C@H]6O[C@@H]6O[C@H](CO)[C@@H](O)[C@H](O)[C@H]6O)CC[C@@]56C[C@@]46CC[C@]23C)O1` [Astragaloside VI] was tested, and the “Percentage of motility inhibition 0 h” value was 3% and the “Percentage of motility inhibition 24 h” value was 0%.
